Results as given in patent US20170247693A1 (priority 2016, published 2017).

System: HepG2 cells
Conditions: normoxia

## COc1cccc2c1C(=O)c1c(O)c3c(c(O)c1C2=O)C[C@@](O)(C(=O)CO)C[C@@H]3O[C@H]1C[C@H](N)[C@H](O)[C@H](C)O1 [DOX, Doxorubicin]
HepG2
  minimal concentration that diminished the growth of the treated cells: 1 μm
HepG2 infected with vACE-NT, 72 h after administering DOX (1 μm)
  decrease of cell viability: 27%
